How the values were obtained:
[1] = DPPH radical scavenging activity (antioxidant activity); details: DPPH method, 30 min, 517 nm, triplicate
Experimental: The DPPH method is based on the free radical scavenging activity ([17]). briefly, 2 mL of DPPH solution in methanol (4×10^-5 g/mL) was prepared and added to 1 mL of different concentrations of sample solution in methanol (0.1, 0.5 and 1.0 mg/mL). The mixture was kept in the dark for 30 min at room temperature. The antioxidant activity was measured by Shimadzu, UV/VIS model 160A spectrophotometer at 517 nm.
All the measurements were done in triplicate. The IC50 values were calculated as means ± SD and butylated hydroxytoluene (BHT) was used as positive control.

[2] = target: T1, Acetylcholinesterase (AChE) (Homo sapiens, UniProt P22303); assay: biochemical; details: for AChE Inhibitory IC50 ± SD: Ellman's method, 412 nm, 25 °C, pH 8.0
T1 construct: purchased Sigma (Germany)
Experimental: AChE inhibitory effect of petroleum ether, chloroform, ethyl acetate, and methanol fractions were carried out by the Ellman′s method ([16]).

[3] = test system: triple transgenic mice of Alzheimer's disease model; details: cited from earlier work
brain cells = details: mice; cited from earlier work

T1 sequence (P22303 32-614, species assumed): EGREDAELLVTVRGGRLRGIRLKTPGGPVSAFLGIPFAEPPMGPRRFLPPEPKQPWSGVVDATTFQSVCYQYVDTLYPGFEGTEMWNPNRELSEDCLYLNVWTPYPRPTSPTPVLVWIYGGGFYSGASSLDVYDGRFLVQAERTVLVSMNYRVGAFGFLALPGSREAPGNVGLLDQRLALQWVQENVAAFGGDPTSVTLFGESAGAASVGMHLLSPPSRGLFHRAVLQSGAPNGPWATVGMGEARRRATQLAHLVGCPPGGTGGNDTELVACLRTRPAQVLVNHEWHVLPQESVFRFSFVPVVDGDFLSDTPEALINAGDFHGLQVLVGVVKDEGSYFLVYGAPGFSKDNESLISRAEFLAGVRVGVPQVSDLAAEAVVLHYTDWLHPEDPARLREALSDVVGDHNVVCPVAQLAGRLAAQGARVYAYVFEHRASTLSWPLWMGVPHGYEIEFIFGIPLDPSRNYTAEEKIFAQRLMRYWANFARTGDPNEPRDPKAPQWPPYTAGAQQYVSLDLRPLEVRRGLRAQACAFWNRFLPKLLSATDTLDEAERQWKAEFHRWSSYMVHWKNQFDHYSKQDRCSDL

O=c1c(O[C@@H]2O[C@H](CO)[C@@H](O)[C@H](O)[C@H]2O)c(-c2ccc(O)cc2)oc2cc(O)cc(O)c12 [Astragalin, astragalin]
Antioxidant Activity IC50 ± SD [1]: 26.92 ± 3.5 µg/mL
IC50 [2]: 162 µM

Cc1cc(C(C)(C)C)c(O)c(C(C)(C)C)c1 [BHT, butylated hydroxytoluene, reference compound]
Antioxidant Activity IC50 ± SD [1]: 19.50 ± 2.8 µg/mL

O=C(O)/C=C/c1ccc(O)c(O)c1 [Caffeic acid]
Antioxidant Activity IC50 ± SD [1]: 11.41 ± 6.0 µg/mL
IC50 [2]: 66.9 µM

O=c1c(O)c(-c2ccc(O)c(O)c2)oc2cc(O)cc(O)c12 [Quercetin, quercetin]
Antioxidant Activity IC50 ± SD [1]: 10.24 ± 1.3 µg/mL
IC50 [2]: 220 µM
effect on performance, emotional and cognitive behavior [3]: protective effects on performance, emotional and cognitive behavior have been confirmed
neuroprotective effect (brain cells): strong protective effects of this compound on the brain cells

O=C(O)c1ccccc1O [Salicylic acid]
Antioxidant Activity IC50 ± SD [1]: 114.57 ± 1.0 µg/mL
AChE Inhibitory IC50 ± SD [2]: -

O=C(O)C=Cc1ccc(O)cc1 [p-Coumaric acid]
Antioxidant Activity IC50 ± SD [1]: 110.33 ± 1.2 µg/mL
AChE Inhibitory IC50 ± SD [2]: -
